Entries after “also recorded” stand apart in the source; their conditions may differ.
Key:
[1] = tested on: COX-2; experiment: COX-2 expression in IL-1β treated chondrocytes (Western blotting); format: cell-based
Experimental: The present inventors have further investigated the relation between the inhibition of ERK activity and the expression of COX-2. Particularly, the inventors have confirmed with Western blotting the quantity of cox-2 protein expressed in chondrocytes after treating the cells with different concentrations of IL-1β for 24 hours.

[2] = tested on: rabbit articular chondrocytes; experiment: De-differentiation of articular chondrocytes in serial monolayer culture (type-II collagen, proteoglycan synthesis); format: cell-based; settings: two days; for expression of type-II collagen: 20 μM
Description: In order to confirm the de-differentiation and degeneration of chondrocytes, the present inventors have performed consecutively monolayer culture with articular chondrocytes of a two- to four-week-old rabbit (FIG. 1B). Particularly, articular cartilage of the rabbit was thin-sectioned aseptically, and the articular fragments were then reacted in PBS containing 0.2% collagenase type-II (Sigma) for six hours. Through quick-centrifugation, single cells were obtained. The single cells were suspended in DMEM (Dulbecco 's modified Eagle's medium, Gibco BRL, Gaithersburg, Md., USA) containing 10% FBS, 50 μg/ml streptomycin, and 50 units/ml penicillin and were plated onto a culture-dish at a density of 5×10^4 cells/cm^2 and cultured at 37° C. The medium was changed every other day. Five days later, the culture dish was filled with grown-up cells, which were identified as P0. Those cells were subcultured at the concentration of 5×10^4 cells/cm^2 per culture dish. The cells were continuously subcultured whenever they were fully grown to fill the dishes and were identified as P1 and next P2. Subculture was finished when P6 phase was completed. […] It was also confirmed by alcian blue staining that the accumulation of glycosaminoglycan sulfide was decreased as the subculture was continued. The de-differentiation and degeneration of chondrocytes were also disclosed by observing the shape of chondrocytes, which was changed from their distinguished round shape to fibroblast shape, a characteristic of degenerated chondrocytes (FIG. 2B).
In order to ascertain the effect of ERK activity on the de-differentiation of chondrocytes, rabbit articular cartilage cells were cultured at the density of 5×10^4 cells/cm^2 on a culture dish. The cells began to proliferate on the second day of culture and reached saturation on the fifth day. The cells in saturation point were designated as P0. The cells in P0 stage had typical round or polygonal shapes, but these forms changed into flat and fibroblast-like shapes while the cells were going through P6 stage by serial monolayer culture (FIG. 2B). The expression of type-II collagen was analyzed by Western and Northern blotting, resulting in the highest expression in, P0, beginning to decrease in P1 and almost no expression after P3 (FIG. 4A). […] Therefore, it was confirmed that the ERK activity was in inverse proportion to the expression of type-II collagen, which means the ERK activity plays an important role in the de-differentiation process.
To determine the relations between ERK activity and de-differentiation, the cells under subculturing were treated with 2-(2-amino-3-methoxyphenol)-4H-1-benzopyran-4-one (PD98059), an ERK activity inhibitor, and the synthesis of collagen and proteoglycan was observed. […]

[3] = tested on: chondrocytes; experiment: NO (SNP) induced de-differentiation of chondrocytes (type-II collagen, proteoglycan); format: cell-based
Description: (§1) In order to investigate the effect of ERK activity on the de-differentiation of chondrocytes induced by NO production, the change of ERK activity in SNP treated chondrocytes was detected. […] In order to increase the ERK activity by SNP, at least 0. […] The ERK activity inhibitor also restrained the inhibition of type-II collagen expression by SNP (FIG. 8C), and it blocked the decrease of proteoglycan synthesis induced by SNP (FIG. 8D).

[4] = tested on: MMP-9; experiment: MMP-9 activity/expression by gelatin zymography in IL-1β treated articular cartilage cells; format: cell-based
Experimental: Particularly, articular cartilage cells were treated with 10 ng/ml of IL-1β according to the different times (0 minutes, ten minutes, thirty minutes, one hour, two hours, four hours, six hours, twelve hours, and 24 hours) and concentrations (0 ng/ml, 0.01 ng/ml , 0.1 ng/ml, 1 ng/ml, and 10 ng/ml), and culture supernatant was then obtained, followed by electrophoresis on the gel containing 2% gelatin. The separated gel was cultured at 37° C. for twelve hours, by which the decomposition of gelatin was induced by MMP-9. The remaining gelatin was stained for the confirmation of gelatin decomposition by MMP, based on which the MMP-9 activity was measured.

[5] = tested on: ERK; experiment: ERK activity in serially monolayer-cultured articular chondrocytes; format: cell-based, rabbit; settings: 20 μM, chondrocytes of each passage, two additional days
Description: In order to confirm the de-differentiation and degeneration of chondrocytes, the present inventors have performed consecutively monolayer culture with articular chondrocytes of a two- to four-week-old rabbit (FIG. 1B). Particularly, articular cartilage of the rabbit was thin-sectioned aseptically, and the articular fragments were then reacted in PBS containing 0.2% collagenase type-II (Sigma) for six hours. Through quick-centrifugation, single cells were obtained. The single cells were suspended in DMEM (Dulbecco 's modified Eagle's medium, Gibco BRL, Gaithersburg, Md., USA) containing 10% FBS, 50 μg/ml streptomycin, and 50 units/ml penicillin and were plated onto a culture-dish at a density of 5×10^4 cells/cm^2 and cultured at 37° C. The medium was changed every other day. Five days later, the culture dish was filled with grown-up cells, which were identified as P0. Those cells were subcultured at the concentration of 5×10^4 cells/cm^2 per culture dish. […]
In order to ascertain the effect of ERK activity on the de-differentiation of chondrocytes, rabbit articular cartilage cells were cultured at the density of 5×10^4 cells/cm^2 on a culture dish. […] The expression of type-II collagen was analyzed by Western and Northern blotting, resulting in the highest expression in, P0, beginning to decrease in P1 and almost no expression after P3 (FIG. 4A). […]

[6] = tested on: limb bud mesenchymal cells of chicken embryo; experiment: Differentiation of mesenchymal cells to chondrocytes (alcian blue staining, type-II collagen Western blot); format: cell-based
Experimental: (§2) The present inventors have observed the differentiation process of chondrocytes using limb bud mesenchymal cells of Hamburger-Hamilton stage 24-25 chicken embryo under micromass culture (FIG. 1A). Particularly, mesenchymal cells were suspended in Ham's F-12 medium (Gibco BRL, Gaithersburg, Md., USA) supplemented with 10% fetal bovine serum (2×10^7 cells/ ml). The cell suspension was loaded onto culture dish (15 μl/spot) and cultured at 37° C. for two hours in order to fix the cells on the dish. The cells were further cultured in the Ham's F-12 medium containing 10% FBS, 50 μg/ml streptomycin, and 50 units/ml penicillin.
As a result, when mesenchymal cells were micromass cultured for five days, the synthesis of type-II collagen, a characteristic of chondrocytes, began to take place from the third day of culturing, which was confirmed by Western blotting using an antibody implying that the differentiation of chondrocytes was progressed. The accumulation of sulfated proteoglycan was also confirmed through alcian blue staining to be increased, which also implied that the differentiation of chondrocytes began from the third day of culturing and completed on the fifth day (FIG. 2A).
The present inventors have confirmed the effect of ERK activity inhibition on the differentiation of chondrocytes. […]

[7] = tested on: ERK; experiment: ERK activity (Western blot, phosphorylated ERK-specific antibody) in micromass-cultured mesenchymal cells; format: cell-based, chicken; settings: mesenchymal cells treated with PD98059, micromass culture
Experimental: as §2
The present inventors have confirmed the effect of ERK activity inhibition on the differentiation of chondrocytes. Particularly, the present inventors have investigated how the differentiation was influenced by the change and the inhibition of ERK activity during the differentiation process of chondrocytes induced by micromass culture of mesenchimal cells (FIG. 2A and Example 1-1). […] Therefore, it was confirmed that the decrease of ERK activity was required for the differentiation from mesenchimal cells to chondrocytes; that is, the differentiation of chondrocytes was stimulated by the inhibition of ERK activity.
(§3) For the activation of ERK, phosphorylation by MEK, the upstream signal transduction molecule of ERK, is required.

[8] = tested on: ERK; experiment: ERK activity in SNP treated chondrocytes; format: cell-based
Description: as §1, §3

[9] = tested on: SPF SD line rats; experiment: Acute toxicity test in rat via non-oral administration; format: in vivo
Experimental: Six-week old SPF SD line rats were used in the tests for acute toxicity. 2-(2-amino-3-methoxyphenol)-4H-1-benzopyran-4-one (PD98059) of the present invention was suspended in 0.5% methyl cellulose solution and intravenous injected once into two rats per group at dosages of 50, 30, and 10 mg/kg/15 ml. Death, clinical symptoms, and weight change in the rats were observed, hematological tests and biochemical tests of blood were performed, and abnormal signs in the gastrointestinal organs of chest and abdomen were observed visually during autopsy.

[10] = tested on: P0 and P2 chondrocytes; experiment: Immunostaining of type-II collagen in P0 and P2 chondrocytes; format: cell-based, rabbit; settings: 20 μM, two days, immunofluorescence
Experimental: In order to examine the suppression of de-differentiation by the inhibition of ERK activity, the expression of collagen was observed by immunostaining. Particularly, 20 μM of ERK activity inhibitor 2-(2-amino-3-methoxyphenol)-4H-1-benzopyran-4-one (PD98059) was added into P0 and P2 chondrocytes, and the cells were then cultured for two days. The cultured cells were fixed with 3% parpformaldehyde for ten minutes and some parts of the cell membranes were disrupted by 0.2% X-100. Next, anti-type II collagen antibody (10 μg/ml) was added thereto and continued to culture thereof for one hour.

[11] = tested on: chondrocytes; experiment: IL-1β induced NO production in chondrocytes (nitrite); format: cell-based
Experimental: Particularly, the amount of NO was determined by measuring the concentration of nitrite, a reaction product of NO, secreted after treating chondrocytes with IL1-β for 24 hours.

[12] = tested on: chondrocytes; experiment: NO production in chondrocytes treated with SNP; format: cell-based
Description: In order to investigate the effect of NO produced in chondrocytes on the de-differentiation of chondrocytes, the present inventors treated the cells with […] (SNP), a NO donor, to induce No production.

[13] = tested on: ERK; experiment: ERK activity in IL-1β treated chondrocytes; format: cell-based; settings: chondrocytes treated with IL-1β
[14] = single intravenous injection, 50, 30 and 10 mg/kg/15 ml

Compound: COc1cccc(-c2cc(=O)c3ccccc3o2)c1N [PD98059, 2-(2-amino-3-methoxyphenol)-4H-1-benzopyran-4-one]
- expression of cox-2 ([1]; 5 μM PD98059, IL-1β for 24 hours): completely suppressed
- increase of synthesis of proteoglycan by a factor (alcian blue staining) ([2]; P0, 20 μM): 2.6
- expression of type-II collagen ([2]; P0 cells): largely increased
- increase of synthesis of proteoglycan by a factor (alcian blue staining) ([2]; P2, 20 μM): 6.4
- expression of type-II collagen ([2]; P2 cells): turned to express again
- decrease of proteoglycan synthesis induced by SNP ([3]; PD98059 with SNP): blocked
- inhibition of type-II collagen expression by SNP ([3]; PD98059 with SNP): restrained
- expression of MMP-9 ([4]; 10 μM PD98059, IL-1β treated chondrocytes): suppressed
- ERK activity [5]: suppressed
- synthesis of proteoglycan (alcian blue staining) ([6]; mesenchymal cells treated with PD98059): remarkably increased; also recorded: largely increased
- expression of type-II collagen ([6]; mesenchymal cells treated with PD98059, Western blot): also increased
- activity of ERK [7]: decreased in a dose-dependent manner
- ERK activity ([8]; 20 μM PD98059, SNP treated chondrocytes): totally restrained
- level not causing any toxic change ([9]; single intravenous injection): ≤ 50 mg/kg
- clinical symptoms, weight change, death [9, 14]: did not cause any specific clinical symptoms, weight change, or death
- hematological tests, biochemical tests of blood, autopsy [9, 14]: No change was observed
- numbers of type-II collagen expressed cells ([10]; P0 cells): remarkably increased
- numbers of type-II collagen expressed cells ([10]; P2 cells): greatly increased
- NO production caused by IL-1β ([11]; 5 μM PD98059, IL-1β for 24 hours, nitrite): completely inhibited

Compound: CC(=O)N[C@H](C(=O)O)C(C)(C)SN=O [SNP, S-nitroso-N-acetyl penicillamine]
- expression of type-II collagen ([3]; 0.1 mM SNP, 24 hours): started to decrease
- expression of type-II collagen ([3]; 1 mM SNP, 12 hours): began to decrease
- expression of type-II collagen ([3]; 1 mM SNP, 24 hours): totally suppressed
- synthesis of proteoglycan ([3]; SNP treated chondrocytes): decreased depending on the concentration
- NO production [12]: in proportion to the concentration
- ERK activity, time course ([8]; 1 mM SNP): began to increase three hours after the treatment and reached the highest activity twelve hours later
- SNP concentration required to increase the ERK activity ([8]; chondrocytes): at least 0. 5 mM

Compound: IL-1β: an inflammatory cytokine
- expression of cox-2 ([1]; different concentrations of IL-1β, 24 hours): increased depending on the concentration
- expression of MMP-9 ([4]; IL-1β 0-10 ng/ml, gelatin zymography): largely increased depending on the concentration
- ERK activity [13]: temporarily increased at the early stage
- NO production ([11]; chondrocytes treated with IL-1β): stimulates NO production in a dose-dependent manner
